# Target: T1, human cardiac ion channel proteins hKir3.1/Kir3.4 (Homo sapiens, UniProt P48544+P48549)
# T1 construct: expressed in transfected cells
# T1 sequence (P48549 1-501): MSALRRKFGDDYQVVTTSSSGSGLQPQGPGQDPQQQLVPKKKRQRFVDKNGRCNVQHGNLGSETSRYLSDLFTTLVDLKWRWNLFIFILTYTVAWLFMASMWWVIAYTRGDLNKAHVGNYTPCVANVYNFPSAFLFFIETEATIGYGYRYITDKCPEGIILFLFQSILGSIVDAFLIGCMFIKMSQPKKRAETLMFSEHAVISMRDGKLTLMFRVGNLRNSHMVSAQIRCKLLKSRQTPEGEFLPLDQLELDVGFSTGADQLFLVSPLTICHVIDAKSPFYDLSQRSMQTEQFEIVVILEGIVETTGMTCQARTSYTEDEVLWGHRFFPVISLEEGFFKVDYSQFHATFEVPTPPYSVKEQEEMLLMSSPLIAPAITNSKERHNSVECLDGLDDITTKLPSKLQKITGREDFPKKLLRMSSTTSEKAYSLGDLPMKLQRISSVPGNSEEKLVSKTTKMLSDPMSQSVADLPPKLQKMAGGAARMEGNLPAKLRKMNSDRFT
# T1 sequence (P48544 1-419): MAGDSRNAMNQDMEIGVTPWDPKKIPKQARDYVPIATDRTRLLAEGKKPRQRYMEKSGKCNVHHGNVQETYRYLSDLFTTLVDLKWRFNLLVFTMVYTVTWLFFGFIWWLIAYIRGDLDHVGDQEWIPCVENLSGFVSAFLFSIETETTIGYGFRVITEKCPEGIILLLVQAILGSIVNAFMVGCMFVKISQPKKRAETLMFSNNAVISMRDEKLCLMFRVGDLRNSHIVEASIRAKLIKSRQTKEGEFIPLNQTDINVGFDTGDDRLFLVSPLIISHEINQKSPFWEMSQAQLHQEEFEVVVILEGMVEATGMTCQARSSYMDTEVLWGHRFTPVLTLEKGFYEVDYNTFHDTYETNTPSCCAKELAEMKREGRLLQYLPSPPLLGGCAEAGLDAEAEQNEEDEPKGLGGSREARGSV
# Test: Atomic Absorption Screening (AAS) Rb efflux assay of hKir3.1/Kir3.4 block, carbachol/high K+ stimulated, 10-pt or 7-pt CR
# Type: cell-based
# Conditions: 7-pt CR (0.037 to 27 μmol/L), AAS Rb efflux, CHO-K1 cells expressing hKir3.1/Kir3.4; mean of >3 replicates; read-out: IKACh IC50 7-pt CR, AAS
# From the text: Human KCNJ3 encoding Kir3.1 (Genbank acc. No. NM_002239) was inserted between EcoRI and NotI in the pIRESneo3 vector (Clontech Laboratories, Inc. CA, USA). Human KCNJ5 encoding Kir3.4 (Genbank Acc. No. BC069482) was inserted between EcoR1 and Not1 in the pIRESpuro3 vector (Clontech Laboratories, Inc. CA, USA). A Kozak sequence (GCCACC) was introduced before the start codon ATG of both constructs. Chinese Hamster Ovary K1, CHO-FLP/IN, cells (Invitrogen Corporation, Paisley, UK) were transfected simultaneously using Lipofectamine 2000 reagent (Invitrogen Corporation, Paisley, UK). Geneticin 600 μg/mL (Invitrogen Corporation, Paisley, UK) and puromycin 3 μg/mL (BD Bioscience) were added to the cell culture medium 3 days after transfection. Two weeks after transfection, colonies had appeared and were manually picked and sorted to one cell per well in a 96-well plate. Cells were then tested for Kir3.1 and Kir3.4 expression using membrane potential assay, Western Blot and Immunocytochemistry. […] The cell line was re-sorted by flow cytometry and resulting clones were assayed electrophysiologically using IonWorks (Molecular Devices) and later validated on the Q-Patch (Sophion A/S).
# The stable cell line was cultured in DMEM/F12 with Glutamax 1 (Invitrogen Corporation, Paisley, UK), supplemented with foetal bovine serum 10%, puromycin 3 μg/mL, hygromycin 300 μg/mL and geneticin 600 μg/mL (Invitrogen Corporation, Paisley, UK). Care was taken not to seed cells at too low density and cells were passaged at approximately 70-80% confluency. Cells used for patch-clamp experiments were prepared by washing using PBS (—Mg, —Ca^2+), 2 times, detached using Accutase (Sigma). For Q-Patch measurements, storage medium was prepared fresh by adding 1.25 mL of 1M Hepes (GibcoBRL) to 50 mL CHO-SFM II medium (GibcoBRL) and detached cells were diluted to 2 million cells/mL in this medium. Frozen (Cryopreserved) cells were used for Atomic Absorption Screening (AAS) and plated poly-D-lysine 384-well plates (Greiner) at a density of 11,000-13,000 cells/well, the day before assay.
# The blocking effects of compounds on the human cardiac ion channel proteins hKir3.1/Kir3.4 were assessed in CHO-K1 cells stably expressing the channel proteins using Atomic Absorption Screening (AAS). Cells were washed and then loaded with 25 μL Rb-loading buffer for three hours at 37° C. After that, the cells were washed again and 25 μL of diluted compound was transferred to the cell plate, incubated for 5 min in RT, and then […] of Carbachol/high K+ (10 μM carbachol and 20 mM KCl final concentration) buffer added to stimulate the cells and open the Kir3.1/Kir3.4 channel. After 10 min stimulation, […] of the supernatant was transferred to a new microplate, 45 μL washing buffer added to the supernatant and the level of Rb in the supernatant was then measured using an Aurora ICR 8000. Compounds were studied at concentrations ranging from 0.003 to 67 μmol/L (dilutions by three, 10-pt CR) or from 0.037 to 27 μmol/L (dilutions by three, 7-pt CR).
# Stock solutions of compounds were prepared in DMSO 10 mM and stored at RT. Buffers used for AAS contained (in mM): HEPES 20, NaCl 150, MgCl2 1.0, CaCl2 2.0 and NaH2PO4 0.8 and Glucose 10 (wash 1) or KCl 5 and Glucose 5 (wash 2) or KCl 5 (dilution buffer). The High K^+ channel opener buffer contained (in mM): HEPES 20, NaCl 130, MgCl2 1.0, CaCl2 2.0 and NaH2PO4 0.8 together with KCl 20. Solutions used for Q-Patch (extracellular) in mM: NaCl 145, KCl 4, CaCl2 2.0, MgCl2 1.0, HEPES 10 and glucose 10. The high K^+ extra cellular solution used for Q-Patch in mM: NaCl 96.7, KCl 50.7, CaCl2 2.0, MgCl2 1.0, HEPES 10 and glucose 10 while the intra cellular solution used was (in mM): KCl 120, CaCl2 5.374, MgCl2 1.75, EGTA 10, KOH 3.125, HEPES 10, Na2ATP 4.
# Results are given as mean IC50 of >4 replicates (10-pt CR, AAS) or >3 replicates (7-pt CR, AAS). Some of the data in Table 1 are mean values of two or more runs. […]
row,SMILES,IC50 [µM]
1,"CC(C)[C@@H](CN1CCCCC1)N(C)C(=O)c1ccc(Cl)cc1 [Example 16.34, 4-Chloro-N-methyl-N-[(1S)-2-methyl-1-(piperidin-1-ylmethyl)propyl]benzamide]",4.3
2,"CC(C)[C@@H](CN1CCCC1)N(C)C(=O)c1cc(F)ccc1F [Example 16.22, (S)-2,5-Difluoro-N-methyl-N-(3-methyl-1-(pyrrolidin-1-yl)butan-2-yl)benzamide]",18

# Same assay, conditions: 10-pt CR (0.003 to 67 μmol/L), AAS Rb efflux, CHO-K1 cells expressing hKir3.1/Kir3.4; mean of >4 replicates; read-out: IKACh IC50 10-pt CR, AAS
row,SMILES,IC50 [µM]
1,"COC[C@@H]1CCCN1C[C@H](C(C)C)N(C)C(=O)c1ccc(Cl)cc1 [Example 3.19, 4-Chloro-N-((S)-1-((S)-2-(methoxymethyl)pyrrolidin-1-yl)-3-methylbutan-2-yl)-N-methylbenzamide]",6
2,"Cc1cc(C(=O)N(C)[C@@H](CN2CCC(O)CC2)C(C)C)ccc1F [Example 25, (R)-4-Fluoro-N-(1-(4-hydroxypiperidin-1-yl)-3-methylbutan-2-yl)-N,3-dimethylbenzamide]",17
3,"Cc1cc(C(=O)N(C)[C@H](CN2C[C@H](O)[C@@H](O)C2)C(C)C)ccc1F [Example 8.12, N-((S)-1-((3S,4S)-3,4-Dihydroxypyrrolidin-1-yl)-3-methylbutan-2-yl)-4-fluoro-N,3-dimethylbenzamide]",4.3
4,"COC1CCN(C[C@H](C(C)C)N(C)C(=O)c2ccc(F)c(C)c2)CC1 [Example 3.8, (S)-4-Fluoro-N-(1-(4-methoxypiperidin-1-yl)-3-methylbutan-2-yl)-N,3-dimethylbenzamide]",4.8
5,"CC(C)[C@@H](CN1CC(F)C1)N(C)C(=O)c1ccc(Cl)cc1 [Example 1.6, (S)-4-Chloro-N-(1-(3-fluoroazetidin-1-yl)-3-methylbutan-2-yl)-N-methylbenzamide]",6.7
6,"CO[C@H](C)[C@@H](CN1CCCC1)N(C)C(=O)c1cccc(C)c1 [Example 3.2, N-((2R,3R)-3-Methoxy-1-(pyrrolidin-1-yl)butan-2-yl)-N,3-dimethylbenzamide]",20
7,"CO[C@H](C)[C@@H](CN1CCCC1)N(C)C(=O)c1ccc(Cl)cc1 [Example 3.5, 4-Chloro-N-((2R,3R)-3-methoxy-1-(pyrrolidin-1-yl)butan-2-yl)-N-methylbenzamide]",7.2
8,"CO[C@H](C)[C@@H](CN1CCCC1)N(C)C(=O)c1ccc(F)c(C)c1 [Example 3.1, 4-Fluoro-N-((2R,3R)-3-methoxy-1-(pyrrolidin-1-yl)butan-2-yl)-N,3-dimethylbenzamide]",7.4
9,"CC(C)[C@@H](CN1CCC1)N(C)C(=O)c1cccc(C(F)(F)F)c1 [Example 1.15, (S)-N-(1-(Azetidin-1-yl)-3-methylbutan-2-yl)-N-methyl-3-(trifluoromethyl)benzamide]",2.3
10,"CC(C)[C@@H](CN1CCC(O)CC1)N(C)C(=O)c1ccc(Cl)cc1 [Example 27, (S)-4-Chloro-N-(1-(4-hydroxypiperidin-1-yl)-3-methylbutan-2-yl)-N-methylbenzamide]",1.1
11,"COC1CCN(C[C@H](C(C)C)N(C)C(=O)c2cccc(C)c2)CC1 [Example 3.10, (S)-N-(1-(4-Methoxypiperidin-1-yl)-3-methylbutan-2-yl)-N,3-dimethylbenzamide]",14

# Further lines, results first:
row,IC50 [µM],SMILES
1,14,"CN(C(=O)c1ccc(C#N)cc1)[C@@H](CN1CC(O)C1)C1CCC1 [Example 35.2, 4-Cyano-N-[(1R)-1-cyclobutyl-2-(3-hydroxyazetidin-1-yl)ethyl]-N-methylbenzamide]"
2,16,"CC[C@H](C)[C@@H](CN1CC(O)C1)N(C)C(=O)c1cc(Cl)ccc1OC [Example 29.9, 5-Chloro-N-((2S,3S)-1-(3-hydroxyazetidin-1-yl)-3-methylpentan-2-yl)-2-methoxy-N-methylbenzamide]"
3,8.5,"Cc1ccc(C(=O)N(C)[C@@H](C)CN2CC(O)C2)cc1C [Example 40.2, (S)—N-(1-(3-Hydroxyazetidin-1-yl)propan-2-yl)-N,3,4-trimethylbenzamide]"
4,0.16,"CC[C@H](C)[C@@H](CN1CC(O)C1)N(C)C(=O)c1ccc(Cl)cc1 [Example 29.2, 4-Chloro-N-((2S,3S)-1-(3-hydroxyazetidin-1-yl)-3-methylpentan-2-yl)-N-methylbenzamide]"
5,4.6,"CN(C(=O)c1ccc(F)cc1Cl)[C@@H](CN1CC(O)C1)C1CCC1 [Example 35.6, 2-Chloro-N-[(1R)-1-cyclobutyl-2-(3-hydroxyazetidin-1-yl)ethyl]-4-fluoro-N-methylbenzamide]"
6,1.4,"CN(C(=O)c1ccccc1)[C@H](CN1CC(O)C1)C1CCC1 [Example 39.7, (S)—N-(1-Cyclobutyl-2-(3-hydroxyazetidin-1-yl)ethyl)-N-methylbenzamide]"
7,1.6,"CC[C@@H](CN1CC(O)C1)N(C)C(=O)c1ccc(Cl)c(F)c1 [Example 39.11, (S)-4-Chloro-3-fluoro-N-(1-(3-hydroxyazetidin-1-yl)butan-2-yl)-N-methylbenzamide]"

# Same assay, conditions: printed as IC50 >67 μM in the 10-pt CR assay or IC50 >27 μM in the 7-pt CR assay; assay format per compound not stated; read-out: IC50
row,IC50 [µM],SMILES
1,> 27,"CC(C)[C@@H](CN1CC(C)(O)C1)N(C)C(=O)c1ccc(F)c(F)c1 [(S)-3,4-Difluoro-N-(1-(3-hydroxy-3-methylazetidin-1-yl)-3-methylbutan-2-yl)-N-methylbenzamide]"
2,> 27,CC(C)[C@@H](CN1CC[C@H](O)C1)N(C)C(=O)c1cccc(C#N)c1 [3-Cyano-N-[(1S)-1-{[(3S)-3-hydroxypyrrolidin-1-yl]methyl}-2-methylpropyl]-N-methylbenzamide]
